Reference: ChEMBL document CHEMBL1148005, “A cell-permeable inhibitor and activity-based probe for the caspase-like activity of the proteasome” (Bioorg Med Chem Lett, 2007)
Active and inactive are the calls of the source. The rule behind the calls is not given here.

Experiments:
Assay type in all cases: tissue-based
Details in all cases: Muscle tissue
Oryctolagus cuniculus [1] = species: Oryctolagus cuniculus; assay: Inhibition of caspase-like activity of rabbit muscle 26S proteasome after 30 mins
Oryctolagus cuniculus [2] = species: Oryctolagus cuniculus; assay: Inhibition of caspase-like activity of rabbit muscle 26S proteasome at 10 to 20 uM after 30 mins
Oryctolagus cuniculus [3] = species: Oryctolagus cuniculus; assay: Inhibition of chymotrypsin-like activity of rabbit muscle 26S proteasome upto 500 uM after 30 mins
Oryctolagus cuniculus [4] = species: Oryctolagus cuniculus; assay: Inhibition of trypsin-like activity of rabbit muscle 26S proteasome upto 500 uM after 30 mins
Oryctolagus cuniculus [5] = species: Oryctolagus cuniculus; assay: Inhibition of caspase-like activity of rabbit muscle 26S proteasome at 50 to 100 uM after 30 mins
Oryctolagus cuniculus [6] = species: Oryctolagus cuniculus; assay: Inhibition of trypsin-like activity of rabbit muscle 26S proteasome at 50 to 100 uM after 30 mins

Row | Activity (Oryctolagus cuniculus [1]) | inhibition (Oryctolagus cuniculus [2]) | Activity (Oryctolagus cuniculus [5]) | Structure (SMILES) | Activity (Oryctolagus cuniculus [3]) | Activity (Oryctolagus cuniculus [4]) | Activity (Oryctolagus cuniculus [6])
1 | Active |  |  | CCCC[C@H](NC(=O)[C@@H]1CCCN1C(=O)[C@H](C)NC(=O)CN=[N+]=[N-])C(=O)N[C@H](/C=C/S(=O)(=O)c1ccc(O)cc1)CC(C)C |  |  | 
2 | Active | > 90% | Active | CCCC[C@H](NC(=O)[C@@H]1CCCN1C(=O)[C@H](C)NC(C)=O)C(=O)N[C@H](/C=C/S(=O)(=O)c1ccc(O)cc1)CC(C)C | inactive | inactive | Active
